Data as given in patent US20050004105A1, “Treatment for a attention-deficit hyperactivity disorder” (priority 2003, published 2005).
Entries after “also recorded” stand apart in the source; their conditions may differ. Read-outs that look alike come from different tables or passages of the source.

Tests used:
[1] = molecular target: T1, 5-HT1A receptors (Homo sapiens, UniProt P08908); details: proportion of maximal inhibition of forskolin-stimulated cAMP relative to 5-HT; Koek et al., 1998; cited from earlier work
T1 sequence (P08908 1-422): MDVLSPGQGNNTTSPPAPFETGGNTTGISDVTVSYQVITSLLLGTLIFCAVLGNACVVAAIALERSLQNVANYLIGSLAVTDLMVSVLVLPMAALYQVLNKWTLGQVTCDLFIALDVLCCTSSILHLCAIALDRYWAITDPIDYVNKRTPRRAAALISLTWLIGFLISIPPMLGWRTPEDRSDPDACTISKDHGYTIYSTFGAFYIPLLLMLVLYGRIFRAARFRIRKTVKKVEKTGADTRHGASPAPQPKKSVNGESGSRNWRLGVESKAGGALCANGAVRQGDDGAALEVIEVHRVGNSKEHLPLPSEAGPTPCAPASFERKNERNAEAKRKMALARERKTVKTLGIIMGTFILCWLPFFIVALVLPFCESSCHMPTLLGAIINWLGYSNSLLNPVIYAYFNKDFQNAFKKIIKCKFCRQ

[2] = test system: other 5-HT receptor subtypes or other neurotransmitter receptors; details: reported; cited from earlier work
[3] = molecular target: T1, 5-HT1A receptors; test: 5-HT1A receptor affinity (Schipper et al., 1991); type: binding; details: for ΔpKi for 5-HT1A and D2 receptors: based on Ki values of Schipper et al.
[4] = test system: Cm mutant mice; details: Cm mutant mice (methylphenidate: both control and Cm mutants); Hess et al., 1996; cited from earlier work
[5] = test system: coloboma mutant (Cm) mice; test: Open-field locomotor activity, coloboma mutant mice; type: in vivo
From the text: (§1) Heterozygote coloboma mice were originally purchased from The Jackson Laboratory (Bar Harbor, Me.) and were bred and maintained in our colony. In the current study, mutant mice and wild-type littermates, all aged 8 to 10 weeks, were used. Animals were divided into 4 groups: mutant/drug-treatment, mutant/vehicle-control, wild-type/drug-treatment, wild-type/vehicle-control (n=4-13 per group). Age and gender were balanced among groups. All animals were housed as littermates (2-4 mice per cage) and were maintained on ad libitum food and water with a 12 hr light/dark cycle.
(§2) The Open-field (OF) test was performed under normal lighting conditions (400 lux). Mice (Cm/+, WT) were brought into the experimental room and allowed at least 1 hr of acclimation. […] Each mouse was then placed into an OF arena (27×27×20 cm) with an infrared beam array system (Med Associates, St. Albans, Vt.) that automatically monitored the animal's activity. Four animals of matching genotype and treatment were tested at one time. The test session lasted 40 min and animals were returned to the home cage at the end of the session. Test measures included locomotion (distance traveled in cm) and number of center entries (zone crossings).

[6] = test system: wild-type mice; test: Open-field locomotor activity, wild-type mice; type: in vivo
From the text: as §1, §2

[7] = test system: mice (C57BL/6J; C3H); test: Peak procedure (peak interval procedure, PIP); type: in vivo; details: for effect on performance (relative response rate curve) in PIP 30 s task: C57BL/6J mice, vs saline
Experimental: The peak procedure is a behavioral model designed to assess an animal's ability to learn an appropriate time period in which to perform a task and a time period in which the animal will be rewarded if the task is performed. The model provides information concerning excitatory and inhibitory components of behavior, as subjects must respond to perform a task when appropriate and stop responding in an “empty trial” when time for reward has elapsed and the reward has not been delivered. The task is sensitive to conditions where there is a failure in inhibitory mechanisms, such as seems to be the case for ADHD (Pliszka et al., Biol. Psychiatry, 48:238-46, 2000).
In the peak procedure, mice are trained to work for food that is delivered at the same time in each trial, but withdrawn in some unreinforced trials. Typically, the response rate increases up to a maximum around the reinforcement time, and then decreases to a low toward the end of the trial. The shape of the response rate indicates whether the animal is sensitive to the time of reinforcement. To be able to perform well in this model, the animals need to be able to learn several tasks. First, the animal must make an association between a response (lever pressing, nose poking or key pecking) and the delivery of reward. Second, the animal must be able to perceive and remember time. Third, the animal must act on its remembered time by starting and then stopping or inhibiting the response. Fourth, the animal must be able to compare the elapsed time in the trials with its remembered time to reinforcement. In each trial the time clock is reset, and the animal must reset its internal “counter,” i.e., at the beginning of each trial animals should start “timing” the trial time from zero. The ability to perform this task depends on the animal's working memory. Starting the internal clock at the beginning of the trial requires that the animal pays attention to the trial start time, which could be in the form of a visual signal, or as reported herein, the introduction of a lever into the experimental chamber. […] Accuracy is measured by looking at the shape of the response function; therefore, if the response function is sharper and centered on the reinforcement time it supports a conclusion that attentional processes have been heightened.
All mice were food deprived to a target weight of 85-90% of their free-feeding weight before training began. Mice were fed approximately 10% of their body weight until they reached their target weight. On average, 1 week of food deprivation was sufficient to reach the target weight. During this time, all subjects were fed Bioserve 500 mg precision dustless pellets as their daily ration. They were exposed to Carnation™ evaporated milk in the home cage to avoid a possible neophobic reaction to the reinforcement. Subjects were given 1-week “vacations” every 4 to 6 weeks at which time they were allowed free access to food and a new free-feeding body weight baseline was recorded. Water was continuously available in the cage.
Once deprived, animals were trained to lever-press in an operant chamber using ultrasensitive levers. Sixteen mouse operant chambers (Med Associates, Georgia, Vt.) were configured identically with two retractable ultra-sensitive levers, stimulus lights, and a dipper for delivery of condensed milk. A house light was placed on the opposite wall from the levers. Each chamber was placed in isolation cubicle. A fan provided white masking noise and adequate air.
Training and testing consisted of 1-h daily sessions. Subjects started on a concurrent fixed ratio 1-fixed time 1 min (FR 1-FT 1) schedule of reinforcement in which the house light served as the discriminative stimulus. Food was delivered every 1 min but the delivery was immediate if the animal made a response. […] After no more than 1 week on this schedule, mice began training with a fixed-interval (FI) 10 s schedule in which all trials were separated by a 20 s, intertrial interval. […]

[8] = molecular target: T1, 5-HT1A receptors; details: Koek et al., 1998; cited from earlier work
[9] = molecular target: D2 receptors (Homo sapiens, UniProt P14416); details: Koek et al., 1998; cited from earlier work
[10] = molecular target: T1, 5-HT1A receptors; test: 5-HT1A receptor affinity (Koek et al., 1998); type: binding; details: from pKi values of Koek et al.
[11] = molecular target: α1 adrenergic receptors; details: Schipper et al., 1991; cited from earlier work
[12] = molecular target: 5-HT1D receptors; details: Schipper et al., 1991; cited from earlier work
[13] = molecular target: other neurotransmitter receptors; details: Schipper et al., 1991; cited from earlier work
[14] = molecular target: 5-HT1B receptors; details: Schipper et al., 1991; Boddeke et al., 1992; cited from earlier work
[15] = test system: rats; details: rats trained to discriminate flesinoxan (0.5 mg/kg i.p.) from saline; cited from earlier work
[16] = molecular target: T2, dopamine D2 receptors (Homo sapiens, UniProt P14416); test: Dopamine D2 receptor affinity (Schipper et al., 1991); type: binding; details: converted from Ki of Schipper et al., read-out: pKi for D2 receptors (converted)
[17] = molecular target: T1, 5-HT1A receptors; details: Schipper et al., 1991; cited from earlier work
[18] = molecular target: T2, dopamine D2 receptors; details: Schipper et al., 1991; cited from earlier work
[19] = C3H mice, 0.1 mg/kg, vs vehicle
[20] = C3H mice, 0.03 mg/kg, vs vehicle

T2 sequence (P14416 whole entry): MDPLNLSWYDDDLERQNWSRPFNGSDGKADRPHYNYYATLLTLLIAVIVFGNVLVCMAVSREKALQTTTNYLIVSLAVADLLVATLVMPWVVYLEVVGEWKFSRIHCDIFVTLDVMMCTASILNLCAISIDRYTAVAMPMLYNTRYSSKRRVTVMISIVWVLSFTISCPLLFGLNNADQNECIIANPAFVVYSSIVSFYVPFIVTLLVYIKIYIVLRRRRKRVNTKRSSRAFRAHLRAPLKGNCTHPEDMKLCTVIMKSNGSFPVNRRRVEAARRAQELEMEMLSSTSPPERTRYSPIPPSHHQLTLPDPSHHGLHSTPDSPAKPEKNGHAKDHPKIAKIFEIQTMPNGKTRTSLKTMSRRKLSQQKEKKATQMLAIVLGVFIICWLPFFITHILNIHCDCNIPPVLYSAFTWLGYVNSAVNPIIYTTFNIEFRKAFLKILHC
Chain of D2 receptors (P14416 whole entry): as above

COc1ccc2cccc(N3CCN(CCNC(=O)c4ccc(F)cc4)CC3)c2c1 [S14506, 1(2-[4-fluorobenzoylamino]ethyl)-4-(7-methoxynaphtyl)piperazine]
intrinsic activity at the 5-HT1A receptor [1]: 0.95

CC1(C)CC(=O)N(CCCCN2CCN(c3ncccn3)CC2)C(=O)C1 [gepirone]
intrinsic activity at the 5-HT1A receptor [1]: 0.77

Clc1cnn(CCCCN2CCN(c3ncccn3)CC2)c1 [lesopitron, 2-[4-[4-(4-chloro-1H-pyrazol-1-yl)-butyl]-1-piperazinyl]pyrimidine]
intrinsic activity at the 5-HT1A receptor [1]: 0.70
affinity for other 5-HT receptor subtypes or other neurotransmitter receptors [2]: virtually no affinity

O=C1CC2(CCCC2)CC(=O)N1CCCCN1CCN(c2ncccn2)CC1 [buspirone]
ΔpKi for 5-HT1A and D2 receptors [3]: 0.44

COC(=O)C(c1ccccc1)C1CCCCN1 (stereo not drawn) [methylphenidate]
effect on hyperactivity / locomotor activity [4]: increases locomotor activity in a dose-dependent manner

CC(N)Cc1ccccc1 (stereo not drawn) [amphetamine]
total distance traveled ([5]; Cm mutant mice, 4 mg/kg i.p. 30 min before 40 min open-field session, saline 18386±6387): 5966±1938 cm
total distance traveled ([6]; 4 mg/kg i.p. 30 min before 40 min open-field session, saline 3116±338): 11657±2370 centimeters
effect on performance (relative response rate curve) in PIP 30 s task ([7]; 1 mg/kg): positive effects
effect on performance (relative response rate curve) in PIP 30 s task ([7]; 2 mg/kg): positive effects
effect on performance (relative response rate curve) in PIP 30 s task ([7]; 4 mg/kg): disrupted performance
effect on hyperactivity / locomotor activity [4]: normalizes the hyperactivity

CCCN(CCC)C1Cc2c[nH]c3ccc(C(N)=O)c(c23)C1 (single isomer, unassigned; (-)) [LY228729, (−)-4(dipropylamino)-1,3,4,5-tetrahydrobenz-[c,d,]indole-6-carboxamide]
intrinsic activity at the 5-HT1A receptor [1]: 0.88

Cn1c(=O)cnn(CCCCN2CCN(c3ncccn3)CC2)c1=O [F11440, 4-methyl-2-(4-[4-(pyrimidin-2-yl)-piperazino]-butyl)-2H,4H-1,2,4-triazin-3,5-dione]
intrinsic activity at the 5-HT1A receptor [1]: 1.0
pKi for 5-HT1A receptors [8]: 8.33
pKi for D2 receptors [9]: 5.75
ΔpKi for 5-HT1A and D2 receptors [10]: 2.58

CCCN(CCC)C1CCc2cccc(O)c2C1 (stereo not drawn) [8-OH-DPAT, 8-hydroxy-2(di-n-propylamino)tetralin]
Ki [11]: 380 nM
attenuation of total ambulatory distance compared to vehicle ([5]; Cm mice, 0.1 mg/kg): ~50%
total frequency of zone crossings ([5]; Cm mice, 0.1 mg/kg, p=0.030): significantly decreased
total ambulatory distance ([5]; Cm mice, 0.1 mg/kg, vehicle 14702±2611, not statistically significant): 7813±2606 centimeters
attenuation of Cm hyperactivity ([5]; Cm mice, lower doses 0.001 or 0.01 mg/kg, data not shown): no significant attenuation
Ki [12]: 930 nM
total ambulatory distance ([6]; 0.1 mg/kg, vehicle 7720±2726, non-significant): 4517±1599 centimeters
Ki [13]: > 1000 nM
ΔpKi for 5-HT1A and D2 receptors [3]: 2.94
effect on performance curves in PIP 30 s and PIP 45 s ([7]; C3H mice, 0.01 mg/kg, vs vehicle, 0.01 mg/kg): not significantly different from the saline curve; also recorded: slightly disruptive
effect on performance curves in PIP 30 s and PIP 45 s [7, 19]: not significantly different from the saline curve

Cl.O=C(NCCN1CCN(c2cccc3c2OCC(CO)O3)CC1)c1ccc(F)cc1 (single isomer, unassigned; (+)) [flesinoxan, (+)(4-fluoro-N-[2-[4-[2-(hydroxymethyl)-1,4-benzodioxane-5-yl] 1-piperazinyl]ethyl]benzamide) HCl]
intrinsic activity at the 5-HT1A receptor [1]: 0.93
Ki [11]: 380 nM
Ki [14]: 810 nM
reduction in locomotor activity compared to vehicle-treated Cm mutants ([5]; Cm mutant mice, 0.3 mg/kg i.p.): more than 75%
total ambulatory distance ([5]; Cm mutant mice, 0.3 mg/kg i.p. 30 min before 40 min open-field session, vehicle 6112±1621): 1462±411 centimeters
frequency of zone crossings ([5]; Cm mutant mice, 0.3 mg/kg i.p., overall effect not statistically significant (p=0.0683)): decreased the frequency of zone crossings in Cm mutants to within the range of saline-treated wild-type mice
generalization to stimuli of α1 adrenoceptor antagonist, α2 adrenoceptor agonist, dopamine receptor agonist or antagonists [15]: did not generalize
Ki [12]: 160 nM
Ki [16]: 141 nM
Ki [17]: 1.7 nM
Ki [18]: 140 nM
locomotion (distance traveled or zones crossed) ([6]; 0.3 mg/kg i.p.): only marginally affected locomotion
pKi for 5-HT1A receptors [8]: 8.91
ΔpKi for 5-HT1A and D2 receptors [3]: about 1.92
Ki ([3]; converted from Ki of Schipper et al.): 1.7 nM
pKi for D2 receptors [9]: 7.05
effect on response curve in PIP 30 s [7, 20]: the peaks of the response curve is higher and the curves are sharper than vehicle
effect on response curve in PIP 45 s [7, 20]: evident but less robust
effect on performance curves in PIP 30 s and PIP 45 s [7, 19]: more comparable to saline curve
ΔpKi for 5-HT1A and D2 receptors [10]: 1.86
